Assay results from PubChem BioAssay (NCI).
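Each compound was tested at five concentrations against cells in 96-well plates for 48 hours. TGI denotes the concentration required for complete inhibition of growth.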

What was measured:
Assay in all cases: NCI-60 cell line screen, 48 h
HT29 colon = system: HT29 colon
HOP-92 NSCLC = system: HOP-92 NSCLC
SK-MEL-28 melanoma = system: SK-MEL-28 melanoma
MDA-MB-435 = system: MDA-MB-435
UACC-257 melanoma = system: UACC-257 melanoma
HOP-62 NSCLC = system: HOP-62 NSCLC
NCI/ADR-RES ovarian = system: NCI/ADR-RES ovarian
OVCAR-4 ovarian = system: OVCAR-4 ovarian
MDA-N = system: MDA-N
HCT-15 colon = system: HCT-15 colon
HCT-116 colon = system: HCT-116 colon
IGROV1 ovarian = system: IGROV1 ovarian
A498 renal = system: A498 renal
SW-620 colon = system: SW-620 colon
RXF 393 renal = system: RXF 393 renal
NCI-H460 lung = system: NCI-H460 lung
SF-539 CNS = system: SF-539 CNS
UO-31 renal = system: UO-31 renal
NCI-H522 lung = system: NCI-H522 lung
CAKI-1 renal = system: CAKI-1 renal

Row | SMILES | TGI (HT29 colon) [µM] | TGI (HOP-92 NSCLC) [µM] | TGI (SK-MEL-28 melanoma) [µM] | TGI (MDA-MB-435) [µM] | TGI (UACC-257 melanoma) [µM] | TGI (HOP-62 NSCLC) [µM] | TGI (NCI/ADR-RES ovarian) [µM] | TGI (OVCAR-4 ovarian) [µM] | TGI (MDA-N) [µM] | TGI (HCT-15 colon) [µM] | TGI (HCT-116 colon) [µM] | TGI (IGROV1 ovarian) [µM] | TGI (A498 renal) [µM] | TGI (SW-620 colon) [µM] | TGI (RXF 393 renal) [µM] | TGI (NCI-H460 lung) [µM] | TGI (SF-539 CNS) [µM] | TGI (UO-31 renal) [µM] | TGI (NCI-H522 lung) [µM] | TGI (CAKI-1 renal) [µM]
1 | COc1ccc(/C=C2/SC(=Nc3ccccc3)N(NC(=O)Cc3ccccc3)C2=O)c(OC)c1 | > 100 | 67.4 | > 100 | > 100 | > 100 | > 100 | > 100 | > 100 | > 100 | > 100 | > 100 | > 100 | > 100 | > 100 | > 100 | > 100 | > 100 | > 100 | – | –
2 | CSc1nc(-c2ccccc2)nc(C(C#N)C#N)n1 | > 100 | > 100 | > 100 | > 100 | > 100 | > 100 | > 100 | > 100 | > 100 | > 100 | > 100 | > 100 | > 100 | > 100 | > 100 | – | > 100 | > 100 | > 100 | > 100
3 | CN(/N=C/c1ccc(Cl)c(Cl)c1)C1=NCCCCN1 | > 100 | 49.6 | – | 36 | 50.8 | 35.4 | > 100 | > 100 | 42.2 | 81.6 | 79.4 | > 100 | 49.2 | 38 | – | > 100 | 61.1 | – | 33.7 | 82.7
4 | Cc1oc2nc(N(C)C)nc(NN)c2c1C | > 100 | > 100 | > 100 | > 100 | > 100 | > 100 | > 100 | > 100 | – | > 100 | > 100 | > 100 | > 100 | > 100 | > 100 | > 100 | > 100 | > 100 | > 100 | > 100
5 | [N-]=[N+]=Nc1c(-c2ccccc2)c(=O)n(-c2ccccc2)c2ccccc12 | > 100 | > 100 | > 100 | > 100 | > 100 | > 100 | > 100 | > 100 | > 100 | > 100 | > 100 | > 100 | > 100 | > 100 | > 100 | > 100 | > 100 | > 100 | 97.1 | –
6 | COc1ccc(NC(=O)C(C#N)=C(SC)SC)cc1 | > 100 | 55.6 | > 100 | > 100 | > 100 | > 100 | – | > 100 | > 100 | > 100 | > 100 | > 100 | > 100 | > 100 | > 100 | > 100 | > 100 | > 100 | > 100 | > 100
7 | COc1ccccc1/C=N/Nc1nnc2c3ccccc3c3ncccc3c2n1 | > 100 | 52.8 | > 100 | > 100 | > 100 | 49.2 | > 100 | 60.1 | > 100 | > 100 | > 100 | > 100 | – | > 100 | 55.6 | > 100 | 76 | > 100 | > 100 | > 100
8 | CC(C)=NOC(=O)OC[C@H]1O[C@@H](n2cnc3c(N)ncnc32)C(O)C1O (some centres undefined) | > 100 | – | > 100 | > 100 | – | > 100 | > 100 | > 100 | > 100 | > 100 | – | > 100 | > 100 | > 100 | > 100 | > 100 | > 100 | > 100 | > 100 | –
9 | CCOC(=O)[C@@]1(C(C)=O)CC(C)=C(C)C[S@]1=O | – | > 100 | > 100 | > 100 | > 100 | > 100 | > 100 | > 100 | > 100 | > 100 | > 100 | > 100 | > 100 | > 100 | > 100 | > 100 | – | > 100 | > 100 | > 100
10 | Cc1nc(C)c(N2CCN(S(N)(=O)=O)CC2)c(=O)[nH]1 | > 100 | > 100 | > 100 | > 100 | > 100 | > 100 | > 100 | > 100 | – | > 100 | > 100 | > 100 | > 100 | > 100 | > 100 | > 100 | > 100 | > 100 | > 100 | > 100
11 | Cc1ccc2nc(CN(CCO)CCO)cc(=O)n2c1 | > 100 | > 100 | > 100 | > 100 | > 100 | > 100 | > 100 | > 100 | > 100 | > 100 | > 100 | > 100 | – | > 100 | – | > 100 | > 100 | > 100 | > 100 | > 100
12 | CCOC(=O)[C@@H](NC(=O)OC(C)(C)C)[C@@H](O)C(=O)OCC | > 100 | > 100 | > 100 | > 100 | > 100 | > 100 | > 100 | > 100 | > 100 | > 100 | > 100 | > 100 | > 100 | > 100 | > 100 | > 100 | – | > 100 | – | > 100
